Results taken from publication PMC9372074, “Biocatalytic routes to stereo-divergent iridoids” (Nature Communications, 2022).
Read-outs that look alike come from different tables or passages of the source. Blank lines part the entries; values can stand above or below the compound they belong to.

Columns and labels:
NmNEPS4 = biological target: T1, NmNEPS4 (Nepeta racemosa, UniProt A0A7D3UJX6); experiment: end-point GC-MS coupled assay; assay type: biochemical; conditions: nepetalactol formed in situ with 7S-ISY; NADPH, 5 mM NAD+; pH 8, 30 °C
T1 construct: pOPINF, His-tagged; E. coli SoluBL21; Ni-NTA purified
T1 sequence (A0A7D3UJX6 1-274): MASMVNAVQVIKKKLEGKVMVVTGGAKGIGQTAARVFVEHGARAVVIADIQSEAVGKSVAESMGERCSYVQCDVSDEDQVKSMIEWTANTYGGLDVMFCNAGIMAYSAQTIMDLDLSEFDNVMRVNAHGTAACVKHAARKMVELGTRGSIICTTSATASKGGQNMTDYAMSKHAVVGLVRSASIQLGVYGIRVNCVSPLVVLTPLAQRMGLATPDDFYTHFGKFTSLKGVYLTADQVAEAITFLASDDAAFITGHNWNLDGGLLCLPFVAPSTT

NmNEPS1 = biological target: T2, NmNEPS1 (Nepeta racemosa, UniProt A0A3Q8GL18); conditions: NADPH, 5 mM NAD+, pH 8, 30 °C
T2 construct: gene NEPS1
T2 sequence (A0A3Q8GL18 whole entry): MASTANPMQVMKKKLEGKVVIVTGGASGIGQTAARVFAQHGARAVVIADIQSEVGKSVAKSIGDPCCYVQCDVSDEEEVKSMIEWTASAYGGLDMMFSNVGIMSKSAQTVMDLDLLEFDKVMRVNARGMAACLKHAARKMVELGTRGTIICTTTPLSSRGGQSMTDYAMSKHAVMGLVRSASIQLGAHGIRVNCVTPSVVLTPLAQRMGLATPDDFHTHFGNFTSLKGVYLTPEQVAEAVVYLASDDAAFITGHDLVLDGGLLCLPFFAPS

NmNEPS3 [1] = biological target: T3, NmNEPS3 (Nepeta racemosa, UniProt A0A3Q8GLE8); conditions: with 7S-ISY and 8-oxogeranial; pH 8, 30 °C; cyclization of 8-oxocitronellyl enol
T3 construct: gene NEPS3
T3 sequence (A0A3Q8GLE8 whole entry): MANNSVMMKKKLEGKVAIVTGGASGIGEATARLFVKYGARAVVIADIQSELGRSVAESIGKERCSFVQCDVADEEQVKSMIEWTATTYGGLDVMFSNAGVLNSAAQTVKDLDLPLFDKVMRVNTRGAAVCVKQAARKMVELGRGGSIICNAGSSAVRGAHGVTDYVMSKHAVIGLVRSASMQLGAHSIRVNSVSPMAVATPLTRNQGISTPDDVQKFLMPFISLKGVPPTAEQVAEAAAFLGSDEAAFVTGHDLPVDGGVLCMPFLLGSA

NcNEPS3A [2] = biological target: T4, NcNEPS3A (Nepeta cataria, UniProt A0A7D3QLP1, V206Q); experiment: end-point GC-MS coupled assay; assay type: biochemical; conditions: with 7S-ISY and 8-oxogeranial; NADPH, 5 mM NAD+; pH 8, 30 °C
T4 construct: pOPINF, His-tagged; E. coli SoluBL21; Ni-NTA purified
T4 sequence (A0A7D3QLP1 entry or part of it V206Q): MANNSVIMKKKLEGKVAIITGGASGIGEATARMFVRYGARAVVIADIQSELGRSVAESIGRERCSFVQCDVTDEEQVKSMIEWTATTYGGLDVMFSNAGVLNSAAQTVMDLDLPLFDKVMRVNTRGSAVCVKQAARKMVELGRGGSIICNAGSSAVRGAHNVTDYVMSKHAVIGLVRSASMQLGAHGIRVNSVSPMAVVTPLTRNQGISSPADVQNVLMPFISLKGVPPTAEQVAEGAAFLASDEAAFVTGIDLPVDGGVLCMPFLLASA

NcNEPS3A [3] = biological target: T5, NcNEPS3A (Nepeta cataria, UniProt A0A7D3QLP1); experiment: end-point GC-MS coupled assay; assay type: biochemical; conditions: nepetalactol formed in situ by the enzyme from ISY product; NADPH, 5 mM NAD+; pH 8, 30 °C
T5 construct: pOPINF, His-tagged; E. coli SoluBL21; Ni-NTA purified
T5 sequence (A0A7D3QLP1 entry or part of it): as the sequence (A0A7D3QLP1 entry or part of it V206Q) above, with Q206V counted along it

NmNEPS3 [4] = biological target: T6, NmNEPS3 (Nepeta racemosa, UniProt A0A3Q8GLE8, Q206V); conditions: nepetalactol formed in situ by the enzyme from ISY product; NADPH, 5 mM NAD+; pH 8, 30 °C
T6 construct: gene NEPS3
T6 sequence (A0A3Q8GLE8 whole entry Q206V): as the sequence (A0A3Q8GLE8 whole entry) above, with Q206V counted along it

end-point GC-MS coupled assay (NmNEPS4): NmNEPS4 can only oxidize 3a (Fig. 3A)
SMILES: CC1=COC(O)[C@H]2[C@@H]1CC[C@@H]2C (stereo partly drawn) [3a, 7S-cis-trans nepetalactol]
end-point GC-MS coupled assay (NmNEPS1; nepetalactol formed in situ with 7S-ISY): NmNEPS1 is able to oxidize both 3c and 7S-cis-trans nepetalactol 3a

end-point GC-MS coupled assay (NcNEPS3A [2]): NcNEPS3A-V206Q produces only 3b
SMILES: CC1=COC(O)[C@H]2[C@@H](C)CC[C@@H]12 (stereo partly drawn) [3b, 7S-cis-cis nepetalactol]
end-point GC-MS coupled assay (NmNEPS3 [1]): NmNEPS3 (N. mussinii), which produces 7S-cis-cis nepetalactol 3b
end-point GC-MS coupled assay (NcNEPS3A [3]): only NcNEPS3A can oxidize 7S-cis-cis nepetalactol 3b
end-point GC-MS coupled assay (NmNEPS3 [4]): NmNEPS3-Q206V mutant has restored oxidation activity

SMILES: CC1=COC(O)[C@@H]2[C@@H]1CC[C@@H]2C (stereo partly drawn) [3c, 7S-trans-cis nepetalactol]
end-point GC-MS coupled assay (NmNEPS1; nepetalactol formed in situ with 7S-ISY and cyclase): NmNEPS1 is able to oxidize both 3c and 7S-cis-trans nepetalactol 3a
